Results taken from publication PMC10251479, “PROTAC-Induced Glycogen Synthase Kinase 3β Degradation as a Potential Therapeutic Strategy for Alzheimer’s Disease” (ACS Chemical Neuroscience, 2023).
Where “and” joins values, the source holds several entries; their conditions need not be identical. Equal values may be shown once.

Assays:
PAMPA-BBB permeation = type: in vitro ADME; settings: for Papp at 2.75 h: PAMPA, pH 7.4, PBS:EtOH (70:30), 2 h 45 min at 25 °C, porcine brain lipid, mean ± SD of two independent experiments, read-out: Pe (experimental data)
Procedure: 11. PAMPA BBB permeation studies.
Prediction of the brain penetration was evaluated using a parallel artificial membrane permeability assay (PAMPA).[12] Ten commercial drugs, PBS at pH 7.4, EtOH, and dodecane were purchased from Sigma- Aldrich, Acros organics, Merck, and Fluka. The porcine polar brain lipid (PBL) was from Avanti Polar Lipids. The donor plate was a 96-well filtrate plate (Multiscreen® IP Sterile Plate PDVF […]
both from Millipore. Filter PDVF membrane units (diameter 30 mm, pore size 0.45 µm) from Symta were used to filter the samples. A 96-well plate UV reader (Biteck Instruments, Synergy H4 Hibrid Reader) was used for the UV measurements.
12 mg of promazine) were dissolved in 1 mL of EtOH. 100 µL of this compound stock solution were taken and 1400 µL of EtOH and 3500 µL of PBS were added to reach 30% of EtOH concentration in the experiment. These solutions were filtered. The acceptor 96-well microplate was filled with 180 µL of PBS/EtOH (70/30). The donor 96-well plate was coated with 4 µL of porcine brain lipid in dodecane (20 mg mL-1) and after 5 min, 180 µL of each compound solution was added. 1 mg of […]
of EtOH and 1.4 mL of PBS, filtered and then added to the donor 96-well plate. Then the donor plate was carefully put on the acceptor plate to form a “sandwich”, which was left undisturbed for 2 h and 45 min at 25 °C. During this time the compounds diffused from the donor plate through the brain lipid membrane into the acceptor plate. After incubation, the donor plate was removed. UV plate reader determined the concentration of compounds and commercial drugs in the acceptor and the donor plates. Every sample was analyzed at three to five wavelengths (between 200 and 500 nm), in 3 wells and in two independent runs. Results are given as the mean and the average of the two runs is reported. Quality control compounds (previously mentioned) of known BBB permeability were included in each experiment to validate the analysis set.

GSK-3β protein [1] = biological target: T1, GSK-3β protein (Homo sapiens, UniProt P49841); assay: GSK-3β degradation by Western blotting in SH-SY5Y cells; type: cell-based; set-up: endogenous in cells; host or cells: SH-SY5Y; settings: 10 μM, 48 h, Western blotting
Procedure: Determination of GSK-3β degradation by Western Blotting
At the end of incubation, cells were trypsinized and the cellular pellet was resuspended in complete lysis buffer containing leupeptin (2 µg/mL, Sigma-Aldrich), phenylmethylsulfonyl fluoride (PMSF, 100 µg/mL, Sigma-Aldrich) and a cocktail of protease/phosphatase inhibitors (100×). The protein concentration was determined using the Bradford method (Bio-Rad Laboratories Srl, Hercules, CA, USA). The protein lysates (50 µg per […]
polyacrylamide gels, Bio-Rad Laboratories SrL) and electroblotted onto 0.45 µm nitrocellulose membranes. Membranes were incubated overnight at 4 °C with primary antibody recognizing GSK-3β (1:1000, Cell Signaling Technologies Inc, Danvers, MA, USA). Membranes were then washed with TRIS-buffered saline-T (TBS + 0.05% Tween20), and then incubated with horseradish peroxidase (POD) linked anti-rabbit secondary antibody (1:2000, GE Healthcare, Chicago, IL, USA).
Immunoreactive bands were visualized by enhanced chemiluminescence (ECL, Bio-Rad Laboratories Srl). The same membranes were stripped and reprobed with anti β-actin (1:1000, Sigma-Aldrich). Data were normalized on the β-actin bands and analyzed by densitometry, using the Quantity One software (Bio-Rad Laboratories Srl).[9] […]

SH-SY5Y cells [2] = assay: Cytotoxicity in SH-SY5Y cells (MTT); type: cell-based, human; settings: MTT, 24 h treatment, 1.25–40 μM
Procedure: Human neuronal SH-SY5Y cells (Sigma-Aldrich, St. Louis, MO, USA) were routinely grown in Dulbecco’s modified Eagle’s Medium supplemented with 10% fetal bovine serum, 2 mM l-glutamine, 50 U/mL penicillin, and 50 μg/mL streptomycin at 37 °C in a humidified incubator with […]
Determination of cytotoxicity
(§1) SH-SY5Y cells were seeded in a 96-well plate at 2 × 10^4 cells/well, incubated for 24 h and then […]
for 24 h at 37°C in 5% CO2. The cell viability, in terms of mitochondrial metabolic function, was evaluated by the reduction of 3-(4,5-dimethyl-2-thiazolyl)-2,5-diphenyl-2H-tetrazolium bromide […]
(MTT) to its insoluble formazan. Briefly, the treatment was replaced with MTT in HBSS [0.5 mg/mL] for 2 h at 37°C in 5% CO2. After washing with HBSS, formazan crystals were dissolved in isopropanol. The amount of formazan was measured (570 nm, reference filter 690 nm) using a multilabel plate reader (VICTOR™ X3, PerkinElmer, Waltham, MA, USA). Data are expressed as mean of three independent experiments. […]

GSK-3β protein [3] = biological target: T1, GSK-3β protein; assay: GSK-3β inhibition in vitro assay (Kinase-Glo luminescent); type: biochemical; set-up: purchased Millipore (Millipore Iberica S.A.U.); settings: ATP 1 μM, GSM substrate 25 μM, 30 min at 37 °C; mean of at least two determinations in duplicate; read-out: IC50 ± SEM, GSK-3β activity
Description: N-(2-(2-(2-((2-(2,6-dioxopiperidin-3-yl)-1,3-dioxoisoindolin-4-yl)amino)ethoxy)ethoxy)ethyl)- 4-((2-(naphthalen-1-yl)-3,5-dioxo-1,2,4-thiadiazolidin-4-yl)methyl)benzamide (4). Synthesized […]
GSK-3β inhibition in vitro assay. Human recombinant GSK-3β, prephosphorylated polypeptide substrate and white 96-well plates were purchased from Millipore (Millipore Iberica S.A.U.). Kinase-Glo Luminescent Kinase Assay was obtained from Promega (Promega Biotech Iberica, SL).
Adenosinetriphosphate (ATP) and all other reagents were from Sigma-Aldrich. Assay buffer contained 50 mM 4-(2-hydroxyethyl)-1- piperazineethanesulfonic acid (HEPES) (pH 7.5), 1 mM ethylenediaminetetraacetic acid (EDTA), 1 mM ethylene glycol tetraacetic acid (EGTA), and 15 mM magnesium acetate. The in solution experiments for GSK-3β inhibition analysis were performed by following the method developed by Baki et al.[1] In a typical assay, 10 μL of test compound (dissolved […]
in DMSO at 1 mM concentration and diluted in advance in assay buffer to the desired concentration) and 10 μL (20 ng) of enzyme were added to each well in presence of 20 μL of assay buffer containing […]
After a 30 min incubation time at 37 °C, the enzymatic reaction was stopped by adding 40 μL of Kinase-Glo reagent. Glow-type luminescence was recorded after 10 min using a Victorx3 (PerkinElmer Waltham, MA, USA) plate […]
inhibitory activities were calculated based on maximal kinase (average positive) and luciferase activities (average negative) measured in the absence of inhibitor and in the presence of reference […]
μM), respectively. The linear regression parameters were determined and the IC 50 extrapolated by GraphPad software (version 5.0; GraphPad Software, La Jolla, CA, USA).

[4] = commercial drugs of the validation study; ref [12]; cited from earlier work
SH-SY5Y cells [5] = assay: Neuroprotective effects against CuSO4 in SH-SY5Y cells (MTT); type: cell-based, human; settings: 1 μM, 24 h, CuSO4 150 μM, MTT
Procedure: as §1
presence of CuSO4 (150 µM) at 37 °C in 5 % CO2. Cells were also treated with compound 1 (1 µM) for 24 h in the presence of lactacystin (5 µM). At the end of the treatment, the cell viability, in terms of mitochondrial metabolic function, was evaluated by the reduction of 3-(4,5-dimethyl-2-thiazolyl)- 2,5-diphenyl-2H-tetrazolium bromide (MTT) to its insoluble formazan. Briefly, the treatment was replaced with MTT in HBSS [0.5 mg/mL] for 2 h at 37°C in 5% CO2. After washing with HBSS, formazan crystals were dissolved in isopropanol. The amount of formazan was measured (570 nm, reference filter 690 nm) using a multilabel plate reader (VICTOR™ X3, PerkinElmer, Waltham, MA, USA).[10] Data are reported as mean ± SEM of three independent experiments. The neurotoxicity was expressed as a percentage of control cells and calculated by the formula: 100 – ((absorbance of treated

[6] = classified from experimental Pe

T1 sequence (P49841 whole entry): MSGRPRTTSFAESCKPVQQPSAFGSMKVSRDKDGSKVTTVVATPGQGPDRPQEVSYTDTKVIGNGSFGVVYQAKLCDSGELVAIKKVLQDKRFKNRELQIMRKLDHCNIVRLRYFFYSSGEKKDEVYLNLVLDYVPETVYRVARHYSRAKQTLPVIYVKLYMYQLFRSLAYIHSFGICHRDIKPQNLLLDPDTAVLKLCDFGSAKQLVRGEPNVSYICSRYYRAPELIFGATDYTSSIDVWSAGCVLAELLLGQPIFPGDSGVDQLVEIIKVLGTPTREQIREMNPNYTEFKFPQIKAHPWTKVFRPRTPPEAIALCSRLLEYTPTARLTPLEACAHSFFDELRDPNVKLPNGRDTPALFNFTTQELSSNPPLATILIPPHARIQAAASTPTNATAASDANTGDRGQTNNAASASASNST

Row | Compound | Papp at 2.75 h (PAMPA-BBB permeation) [×10⁻⁶ cm/s] | total GSK-3β protein level (GSK-3β protein [1]) | concentration at which cytotoxicity was shown (SH-SY5Y cells [2]) | also measured
1 | CCn1cc(C(=O)O)c(=O)c2cc(F)c(N3CCNCC3)nc21 [Enoxacin, reference compound] | 10.3 ± 0.95 |  |  | 
2 | CNCCCN1c2ccccc2CCc2ccccc21 [Desipramine, reference compound] | 36.5 ± 5.35 |  |  | 
3 | O=C(Cn1cc(C2=C(c3ccc(Cl)cc3Cl)C(=O)NC2=O)c2ccccc21)NCCOCCOCCNc1cccc2c1C(=O)N(C1CCC(=O)NC1=O)C2=O (stereo not drawn) [Compound 3] | 20.7 ± 3.93 | significantly decreased the total level of GSK-3β protein | higher than 20 μM | IC50 (GSK-3β protein [3]): 457 ± 99 nM; BBB permeability classification (PAMPA-BBB permeation; [6]): predicted to cross the BBB; Prediction (penetration in the CNS) (PAMPA-BBB permeation; [6]): CNS + (CNS + (green) for P e > 15.78 × 10−6 cm s−1)
4 | Cn1c(=O)c2c(ncn2C)n(C)c1=O [Caffeine, reference compound] | 7.29 ± 0.57 |  |  | 
5 | CCn1cc(C(=O)O)c(=O)c2cc(F)c(N3CCNCC3)cc21 [Norfloxacin, reference compound] | 5.37 ± 0.17 |  |  | 
6 | CN(C)CCCN1c2ccccc2Sc2ccccc21 [Promazine, reference compound] | 24.2 ± 0.89 |  |  | Pe (literature data) [4]: 8.8 10-6 cm s-1
7 | O=C1CCC(N2C(=O)c3cccc(NCCOCCOCCNC(=O)c4ccc(Cn5c(=O)sn(-c6cccc7ccccc67)c5=O)cc4)c3C2=O)C(=O)N1 (stereo not drawn) [Compound 4, N-(2-(2-(2-((2-(2,6-dioxopiperidin-3-yl)-1,3-dioxoisoindolin-4-yl)amino)ethoxy)ethoxy)ethyl)-4-((2-(naphthalen-1-yl)-3,5-dioxo-1,2,4-thiadiazolidin-4-yl)methyl)benzamide] |  | did not induce GSK-3β degradation | higher than 20 μM | IC50 (GSK-3β protein [3]): 178 nM
8 | Cn1cc(C2=C(c3ccc(Cl)cc3Cl)C(=O)NC2=O)c2ccccc21 [SB-216763, reference compound] |  | did not modify the basal level of GSK-3β protein | higher than 20 μM | neurotoxicity induced by CuSO4 (SH-SY5Y cells [5]): significantly counteracted the neurotoxicity induced by CuSO4
9 | O=C1CCC(N2C(=O)c3cccc(NCCCOCCCCOCCCNC(=O)c4ccc(Cn5c(=O)sn(-c6cccc7ccccc67)c5=O)cc4)c3C2=O)C(=O)N1 (stereo not drawn) [Compound 2] |  | did not induce GSK-3β degradation | ≥ 20 µM | IC50 (GSK-3β protein [3]): 79.3 nM and 79 nM
10 | O=c1sn(-c2cccc3ccccc23)c(=O)n1Cc1ccccc1 [tideglusib, reference compound] |  |  |  | neurotoxicity induced by CuSO4 (SH-SY5Y cells [5]): significantly counteracted the neurotoxicity induced by CuSO4
11 | CN1C(C(=O)Nc2ccccn2)=C(O)c2ccccc2S1(=O)=O [Piroxicam, reference compound] | 12.8 ± 0.63 |  |  | Pe (literature data) [4]: 2.5 10-6 cm s-1
